Reference: ChEMBL document CHEMBL5126552, “Discovery of small-molecule compounds and natural products against Parkinson's disease: Pathological mechanism and structural modification” (Eur J Med Chem, 2022)
Values belong to the molecule of their own block, whether it stands above or below them.

Legend:
Adenosine receptor A1 [1] = target: T1, Adenosine receptor A1 (Rattus norvegicus, UniProt P25099); experiment: Antagonist activity at rat adenosine A1 receptor
T1 sequence (P25099 whole entry): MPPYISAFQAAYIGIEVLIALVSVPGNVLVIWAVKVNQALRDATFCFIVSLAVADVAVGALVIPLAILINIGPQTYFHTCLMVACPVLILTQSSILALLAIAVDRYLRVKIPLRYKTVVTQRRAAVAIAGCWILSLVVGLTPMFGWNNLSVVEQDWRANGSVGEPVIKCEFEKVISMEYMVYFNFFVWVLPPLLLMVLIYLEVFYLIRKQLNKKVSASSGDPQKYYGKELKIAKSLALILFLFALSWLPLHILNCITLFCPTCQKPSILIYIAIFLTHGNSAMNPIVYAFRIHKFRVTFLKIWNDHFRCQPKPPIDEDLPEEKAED

Adenosine receptor A2a [2] = target: Adenosine receptor A2a (Rattus norvegicus, UniProt P30543); experiment: Antagonist activity at rat adenosine A2A receptor
Sequence of Adenosine receptor A2a (Rattus norvegicus, UniProt P30543) (P30543 whole entry): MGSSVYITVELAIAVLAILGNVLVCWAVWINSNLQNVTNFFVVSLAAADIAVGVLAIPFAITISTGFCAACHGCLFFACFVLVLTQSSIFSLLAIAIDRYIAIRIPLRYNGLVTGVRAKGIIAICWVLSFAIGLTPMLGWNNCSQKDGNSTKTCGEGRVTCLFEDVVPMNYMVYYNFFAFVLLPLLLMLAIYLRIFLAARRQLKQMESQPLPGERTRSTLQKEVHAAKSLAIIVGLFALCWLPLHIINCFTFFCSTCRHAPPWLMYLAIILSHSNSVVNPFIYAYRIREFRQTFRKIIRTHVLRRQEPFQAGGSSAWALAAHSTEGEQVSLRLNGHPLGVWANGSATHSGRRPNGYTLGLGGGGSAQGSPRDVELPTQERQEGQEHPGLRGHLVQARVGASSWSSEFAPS

[3] = Half life in rat at 3 mg/kg,po; details: in vivo
in vivo [4] = details: rat, po, 3 mg/kg
[5] = Inhibition of Monoamine oxidase in MPTP-induced C57BL/6 mouse assessed as inhibition constant
[6] = Inhibition of c-Jun phosphorylation in streptozotocin stimulated rat INS1 cells using TMB as substrate incubated for 16 hrs by microplate reader assay; details: INS1, 16 h
[7] = Agonist activity at D2 receptor in mouse MN9D cells assessed as increase in GTPgammaS binding
[8] = Agonist activity at D3 receptor in mouse MN9D cells assessed as increase in GTPgammaS binding
[9] = Agonist activity at rat mGlu4 receptor assessed as increase in calcium flux
in vivo [10] = details: rat, po, 15 mg/kg
Description: Oral bioavailability in 6-OHDA-unilateral lesioned rat model of Parkinson's disease at 15 mg/kg

animal or person = details: Mus musculus, po, 6 h, read-out: INH
Adenosine receptor A2a [11] = target: Adenosine receptor A2a (Homo sapiens, UniProt P29274); experiment: Antagonist activity at human adenosine A2A receptor
Sequence of Adenosine receptor A2a (Homo sapiens, UniProt P29274) (P29274 whole entry): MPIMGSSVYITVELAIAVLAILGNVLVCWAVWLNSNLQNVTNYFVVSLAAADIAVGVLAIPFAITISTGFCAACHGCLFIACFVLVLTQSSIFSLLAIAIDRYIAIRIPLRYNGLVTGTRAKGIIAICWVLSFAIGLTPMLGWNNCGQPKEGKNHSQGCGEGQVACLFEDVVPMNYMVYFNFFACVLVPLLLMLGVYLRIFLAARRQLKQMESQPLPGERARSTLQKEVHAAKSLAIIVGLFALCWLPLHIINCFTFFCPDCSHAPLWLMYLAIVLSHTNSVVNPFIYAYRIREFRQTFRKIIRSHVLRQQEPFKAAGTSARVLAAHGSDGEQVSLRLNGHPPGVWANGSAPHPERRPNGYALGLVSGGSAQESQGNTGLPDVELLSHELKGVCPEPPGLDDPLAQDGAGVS

Adenosine receptor A1 [12] = target: T2, Adenosine receptor A1 (Homo sapiens, UniProt P30542)
T2 sequence (P30542 whole entry): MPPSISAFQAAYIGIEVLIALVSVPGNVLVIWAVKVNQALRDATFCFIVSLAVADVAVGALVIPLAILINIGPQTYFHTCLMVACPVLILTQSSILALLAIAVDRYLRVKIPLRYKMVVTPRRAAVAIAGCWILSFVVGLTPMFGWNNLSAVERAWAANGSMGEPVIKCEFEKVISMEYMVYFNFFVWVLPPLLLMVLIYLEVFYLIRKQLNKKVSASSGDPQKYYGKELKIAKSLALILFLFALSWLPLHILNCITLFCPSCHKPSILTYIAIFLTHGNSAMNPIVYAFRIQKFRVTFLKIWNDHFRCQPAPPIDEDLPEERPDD
Description: Antagonist activity at human adenosine A1 receptor

[13] = Drug concentration in 6-OHDA-unilateral lesioned mouse model of Parkinson's disease assessed as brain concentration at 50 mg/kg,ip measured after 4 hrs
[14] = Plasma concentration in 6-OHDA-unilateral lesioned mouse model of Parkinson's disease at 50 mg/kg,ip measured after 4 hrs
D(3) dopamine receptor [15] = target: T3, D(3) dopamine receptor (Homo sapiens, UniProt P35462); experiment: Agonist activity at dopamine D3 receptor (unknown origin)
T3 sequence (P35462 whole entry): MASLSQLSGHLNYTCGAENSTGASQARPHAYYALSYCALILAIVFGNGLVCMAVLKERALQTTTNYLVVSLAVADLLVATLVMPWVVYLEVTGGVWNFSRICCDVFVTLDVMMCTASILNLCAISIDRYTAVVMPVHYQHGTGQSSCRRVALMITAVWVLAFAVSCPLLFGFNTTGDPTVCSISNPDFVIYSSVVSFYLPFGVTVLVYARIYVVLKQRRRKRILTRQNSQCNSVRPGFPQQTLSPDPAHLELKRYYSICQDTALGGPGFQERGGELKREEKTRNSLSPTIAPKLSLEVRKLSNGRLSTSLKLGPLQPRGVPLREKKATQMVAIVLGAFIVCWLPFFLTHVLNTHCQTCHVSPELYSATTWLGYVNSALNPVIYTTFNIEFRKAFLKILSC

D(2) dopamine receptor [16] = target: T4, D(2) dopamine receptor (Homo sapiens, UniProt P14416)
T4 sequence (P14416 whole entry): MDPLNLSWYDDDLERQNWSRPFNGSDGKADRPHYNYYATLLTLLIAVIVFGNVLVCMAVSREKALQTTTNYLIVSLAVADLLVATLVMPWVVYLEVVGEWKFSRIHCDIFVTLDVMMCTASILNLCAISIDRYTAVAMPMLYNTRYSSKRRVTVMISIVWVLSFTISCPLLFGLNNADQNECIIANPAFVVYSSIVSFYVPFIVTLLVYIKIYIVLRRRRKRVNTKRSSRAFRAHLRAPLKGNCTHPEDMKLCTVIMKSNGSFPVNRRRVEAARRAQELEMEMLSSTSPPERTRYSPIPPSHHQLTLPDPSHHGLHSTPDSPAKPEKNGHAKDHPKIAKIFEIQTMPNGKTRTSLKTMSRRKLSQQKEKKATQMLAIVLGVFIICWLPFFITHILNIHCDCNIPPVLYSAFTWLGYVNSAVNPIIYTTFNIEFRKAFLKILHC
Description: Agonist activity at dopamine D2 receptor (unknown origin)

[17] = target: T5, Amine oxidase [flavin-containing] B (Homo sapiens, UniProt P27338); experiment: Inhibition of human MAO-B
T5 sequence (P27338 whole entry): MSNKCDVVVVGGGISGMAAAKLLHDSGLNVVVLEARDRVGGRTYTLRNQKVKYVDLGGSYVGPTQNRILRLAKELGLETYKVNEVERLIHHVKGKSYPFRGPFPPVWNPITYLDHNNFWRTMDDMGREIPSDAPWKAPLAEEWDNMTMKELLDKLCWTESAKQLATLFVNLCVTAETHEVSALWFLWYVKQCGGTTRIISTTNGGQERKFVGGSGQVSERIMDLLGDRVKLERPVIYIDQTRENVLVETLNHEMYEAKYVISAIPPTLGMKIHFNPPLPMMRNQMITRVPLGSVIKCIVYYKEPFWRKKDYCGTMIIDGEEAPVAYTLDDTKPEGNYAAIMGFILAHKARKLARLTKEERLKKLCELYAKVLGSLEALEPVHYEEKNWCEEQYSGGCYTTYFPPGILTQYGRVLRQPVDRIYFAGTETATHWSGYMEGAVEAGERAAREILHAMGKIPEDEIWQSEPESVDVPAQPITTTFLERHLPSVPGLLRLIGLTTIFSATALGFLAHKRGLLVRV

[18] = Displacement of [3H]-spiperone from D2 receptor in rat striatum incubated for 90 mins by competitive radioligand binding based scintillation counter analysis
[19] = Displacement of [3H]-SCH23390 from D1 receptor in rat striatum incubated for 30 mins by competitive radioligand binding based scintillation counter analysis
[20] = Metabolic stability at human liver microsomes assessed as intrinsic clearance
[21] = Metabolic stability at human liver microsomes assessed as half life
D(3) dopamine receptor [22] = target: T3, D(3) dopamine receptor; experiment: Agonist activity at dopamine D3 receptor (unknown origin) assessed as increase in GTPgammaS binding
D(2) dopamine receptor [23] = target: T4, D(2) dopamine receptor; remark: listed apart in the source

SMILES: Nc1nc(NC[C@H]2CCCN2Cc2ccnc(Cl)c2)nc2nc(-c3ccco3)nn12
- Ki (Adenosine receptor A1 [1]): > 250 nM
- Ki (Adenosine receptor A2a [2]): 10 nM

SMILES: CC1=C(C)C(=O)c2cc(C)ccc2C1=O
- Ki [5]: 6000 nM

SMILES: Cc1ccc(-c2ncn(-c3ccc(Nc4nccc(-c5cccc(N6CCOCC6)c5)n4)cc3)n2)cn1
- IC50 [6]: 216 nM

SMILES: CCCN(CCN1CCN(C(=O)c2cc3ccccc3[nH]2)CC1)[C@H]1CCc2nc(N)sc2C1
- EC50 [7]: 2.96 nM
- EC50 [8]: 1.26 nM

SMILES: Cc1ccc(-c2cc(-c3cccc(C(=O)N4CCCCC4)c3)nc(N)n2)o1
- Ki (Adenosine receptor A1 [1]): 6.34 nM
- Ki (Adenosine receptor A2a [2]): 9.54 nM

SMILES: Fc1ccc(Nc2n[nH]c3cccnc23)cc1Cl
- EC50 [9]: 46 nM
- bioavailability (in vivo [10]): 95%

SMILES: O=C(CCN1CCN(c2cccc(C(F)(F)F)c2)CC1)c1cc(O)c(O)c([N+](=O)[O-])c1
- inhibition in vivo at 30 mg/kg (animal or person): 74%

SMILES: Nc1nc(N2CCN3CCC[C@@H]3C2)cc2nc(-c3ccco3)nn12
- Ki (Adenosine receptor A2a [11]): 63 nM
- Ki (Adenosine receptor A1 [12]): 1100 nM

SMILES: C/C(=N\NC(=O)c1cc(-c2ccccc2)on1)c1ccc(C)cc1
- IC50 [17]: 5.1 nM

SMILES: CCCN1CCC[C@H]2c3[nH]c4ccccc4c3CC[C@@H]21
- Ki [18]: 1.31 nM
- Ki [19]: 19.8 nM

SMILES: CO[C@@H]1CCN(c2cccc(-c3nc(-n4nc(C)cc4C)nc(N)c3C#N)n2)C1
- CLint scaled [20]: 34 mL/min/kg
- half-life [21]: 53 min

SMILES: CCCN(CCN1CCN(c2ccc3c(c2)[nH]c2ccccc23)CC1)[C@H]1CCc2c(O)cccc2C1
- EC50 (D(3) dopamine receptor [22]): 0.87 nM
- EC50 (D(2) dopamine receptor [23]): 0.23 nM

SMILES: C#CCN1CCC[C@H]2c3[nH]c4ccccc4c3CC[C@@H]21
- Ki [18]: 1.09 nM
- Ki [19]: 2.15 nM

SMILES: COc1ccc(/C(C)=N/NC(=O)c2cc(-c3ccccc3)on2)cc1OC
- IC50 [17]: 5.9 nM

The remaining lines, values ahead:

- half-life [3]: 30 min
- bioavailability (in vivo [4]): 7%
SMILES: Cn1nc(C(F)(F)F)c(CN2CCN(c3nc(N)n4nc(-c5ccco5)nc4n3)CC2)c1Cl

- concentration at 4 h [13]: 100 µM
- concentration at 4 h [14]: 100 µM
SMILES: Cc1cc(Oc2nccc3occc23)ccc1-c1c(C)c(=O)[nH]c(=O)n1C

- EC50 (D(3) dopamine receptor [15]): 2.91 nM
- EC50 (D(2) dopamine receptor [16]): 9.98 nM
SMILES: CCCN(CCN1CCN(c2ccccc2)CC1)[C@H]1CCc2ccc(O)cc2C1

- Ki (Adenosine receptor A2a [11]): 0.22 nM
SMILES: COC[C@H]1CCCN1c1cc(Nc2ccccn2)nc(-n2cccn2)n1

- EC50 [7]: 114 nM
- EC50 [8]: 0.26 nM
SMILES: CCCN(CCN1CCN(c2ccc3[nH]ccc3c2Cl)CC1)[C@H]1CCc2nc(N)sc2C1

- Ki (Adenosine receptor A1 [12]): > 540 nM
SMILES: Cc1cccc(Nc2nc(NCCCO)nc3c2cnn3-c2ccccc2)c1

- IC50 [17]: 12400 nM
SMILES: CNCc1cc(=O)oc2c(O)c(O)ccc12

- EC50 (D(2) dopamine receptor [16]): 51.6 nM
SMILES: CCCN(CCN1CCN(c2ccc(-c3ccccn3)nc2)CC1)[C@H]1CCc2nc(N)sc2C1
